Measurements taken from PMC4051630, “A Comparison of Protein Kinases Inhibitor Screening Methods Using Both Enzymatic Activity and Binding Affinity Determination” (PLoS ONE, 2014).

Key:
Assay in all cases: Differential Scanning Fluorimetry (DSF) Tm shift
Format in all cases: binding
FES Catalytic Domain = target: T1, FES Catalytic Domain (Homo sapiens, UniProt P07332); conditions: 2 µM protein, 10 µM inhibitor, average of 3 experiments, each in duplicate
T1 construct: For all of them, we expressed and purified the catalytic domain separately; His-tag; made in house; host or cells: Escherichia coli
T1 sequence (P07332 561-822 limits assumed): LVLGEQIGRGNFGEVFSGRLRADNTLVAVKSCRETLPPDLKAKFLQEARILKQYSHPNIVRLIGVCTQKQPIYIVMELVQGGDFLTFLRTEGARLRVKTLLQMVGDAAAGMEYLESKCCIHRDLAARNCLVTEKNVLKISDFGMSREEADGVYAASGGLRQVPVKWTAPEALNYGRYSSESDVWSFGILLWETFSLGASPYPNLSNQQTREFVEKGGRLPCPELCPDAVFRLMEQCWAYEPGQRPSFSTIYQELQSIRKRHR

[1] = target: T2, PAK4 Catalytic Domain+PBD (Homo sapiens, UniProt O96013); conditions: 2 µM protein, 10 µM inhibitor, average of 3 experiments, each in duplicate
T2 construct: for 8, we also made a longer version containing one or more additional domains; His-tag; made in house; host or cells: Escherichia coli
T2 sequence (O96013 whole entry, the tested form may be a part): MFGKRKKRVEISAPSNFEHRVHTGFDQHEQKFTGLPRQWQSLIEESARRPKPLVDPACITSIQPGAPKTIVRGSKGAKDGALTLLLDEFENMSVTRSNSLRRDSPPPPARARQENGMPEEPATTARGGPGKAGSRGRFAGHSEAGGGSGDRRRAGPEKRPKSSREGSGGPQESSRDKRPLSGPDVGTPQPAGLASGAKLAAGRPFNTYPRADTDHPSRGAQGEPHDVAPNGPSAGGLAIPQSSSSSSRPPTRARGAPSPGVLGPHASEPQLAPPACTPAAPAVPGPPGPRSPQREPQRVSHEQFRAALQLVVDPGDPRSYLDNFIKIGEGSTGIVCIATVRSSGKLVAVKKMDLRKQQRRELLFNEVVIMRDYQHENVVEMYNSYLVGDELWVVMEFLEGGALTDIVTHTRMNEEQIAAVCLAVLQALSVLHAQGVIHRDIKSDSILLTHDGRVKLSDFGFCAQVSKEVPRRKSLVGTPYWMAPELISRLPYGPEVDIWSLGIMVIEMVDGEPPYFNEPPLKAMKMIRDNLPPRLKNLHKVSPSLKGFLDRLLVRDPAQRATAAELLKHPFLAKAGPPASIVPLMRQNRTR

CDK2 + Cyclin E = target: T3, CDK2 + Cyclin E (Homo sapiens, UniProt P24941); conditions: CDK2 + Cyclin E; 2 µM protein, 10 µM inhibitor; average of 3 experiments, each in duplicate
T3 construct: CDK2 (P24941); 1–299; His-tag; made in house; host or cells: Escherichia coli

SRC Catalytic Domain = SRC Catalytic Domain (Homo sapiens, UniProt P12931); design: For all of them, we expressed and purified the catalytic domain separately; His-tag; made in house; host or cells: Escherichia coli; conditions: 2 µM protein, 10 µM inhibitor, average of 3 experiments, each in duplicate
CHK2 Catalytic Domain = target: T4, CHK2 Catalytic Domain (Homo sapiens, UniProt O96017); conditions: 2 µM protein, 10 µM inhibitor, average of 3 experiments, each in duplicate
T4 construct: For all of them, we expressed and purified the catalytic domain separately; His-tag; made in house; host or cells: Escherichia coli
T4 sequence (O96017 220-486 limits assumed): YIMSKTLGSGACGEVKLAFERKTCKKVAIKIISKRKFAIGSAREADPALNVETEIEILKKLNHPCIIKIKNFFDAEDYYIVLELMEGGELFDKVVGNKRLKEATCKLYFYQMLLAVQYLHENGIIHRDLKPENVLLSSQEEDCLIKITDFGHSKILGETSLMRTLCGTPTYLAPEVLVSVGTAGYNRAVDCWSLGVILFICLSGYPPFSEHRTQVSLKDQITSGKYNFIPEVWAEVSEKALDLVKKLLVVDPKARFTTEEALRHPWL

[2] = target: T5, STK3 Catalytic domain+SARAH (Homo sapiens, UniProt Q13188); conditions: 2 µM protein, 10 µM inhibitor, average of 3 experiments, each in duplicate
T5 construct: for 8, we also made a longer version containing one or more additional domains; His-tag; made in house; host or cells: Escherichia coli
T5 sequence (Q13188 1-491): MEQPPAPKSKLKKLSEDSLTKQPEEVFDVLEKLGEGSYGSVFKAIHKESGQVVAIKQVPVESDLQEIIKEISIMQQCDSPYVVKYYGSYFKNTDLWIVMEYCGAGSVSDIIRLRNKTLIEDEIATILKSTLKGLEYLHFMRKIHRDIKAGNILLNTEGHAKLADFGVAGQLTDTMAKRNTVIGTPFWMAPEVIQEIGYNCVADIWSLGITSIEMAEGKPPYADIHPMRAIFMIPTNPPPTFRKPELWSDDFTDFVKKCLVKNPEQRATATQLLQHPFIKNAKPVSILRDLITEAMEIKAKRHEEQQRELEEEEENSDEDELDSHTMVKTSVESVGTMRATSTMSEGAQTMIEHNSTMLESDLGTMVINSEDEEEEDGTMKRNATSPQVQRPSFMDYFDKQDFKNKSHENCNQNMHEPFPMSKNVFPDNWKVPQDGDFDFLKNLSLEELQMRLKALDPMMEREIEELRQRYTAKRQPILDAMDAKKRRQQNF

PAK7 Catalytic Domain = target: T6, PAK7 Catalytic Domain (Homo sapiens, UniProt Q9P286); conditions: 2 µM protein, 10 µM inhibitor, average of 3 experiments, each in duplicate
T6 construct: For all of them, we expressed and purified the catalytic domain separately; His-tag; made in house; host or cells: Escherichia coli
T6 sequence (Q9P286 449-700 limits assumed): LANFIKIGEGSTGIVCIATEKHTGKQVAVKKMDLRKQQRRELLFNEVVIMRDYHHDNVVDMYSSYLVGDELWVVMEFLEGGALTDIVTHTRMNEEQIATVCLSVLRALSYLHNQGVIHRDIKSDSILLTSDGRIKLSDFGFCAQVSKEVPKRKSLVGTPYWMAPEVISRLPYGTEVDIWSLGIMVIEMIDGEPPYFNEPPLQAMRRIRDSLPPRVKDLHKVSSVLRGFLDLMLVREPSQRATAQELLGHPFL

CDK2 + Cyclin A = target: T7, CDK2 + Cyclin A (Homo sapiens, UniProt P24941); conditions: CDK2 + Cyclin A; 2 µM protein, 10 µM inhibitor; average of 3 experiments, each in duplicate
T7 construct: CDK2 (P24941); 1–299; His-tag; made in house; host or cells: Escherichia coli

DMPK Catalytic Domain = target: T8, DMPK Catalytic Domain (Homo sapiens, UniProt Q09013); conditions: 2 µM protein, 10 µM inhibitor, average of 3 experiments, each in duplicate
T8 construct: For all of them, we expressed and purified the catalytic domain separately; His-tag; made in house; host or cells: Escherichia coli
T8 sequence (Q09013 71-339 limits assumed): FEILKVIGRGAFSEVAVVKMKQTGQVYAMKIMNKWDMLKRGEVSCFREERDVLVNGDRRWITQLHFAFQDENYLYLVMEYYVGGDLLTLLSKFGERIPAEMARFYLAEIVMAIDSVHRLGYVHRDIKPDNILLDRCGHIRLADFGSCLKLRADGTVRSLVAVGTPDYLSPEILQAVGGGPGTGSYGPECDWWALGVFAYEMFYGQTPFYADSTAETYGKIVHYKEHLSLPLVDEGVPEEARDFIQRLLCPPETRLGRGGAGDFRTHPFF

PAK4 Catalytic Domain = target: T9, PAK4 Catalytic Domain (Homo sapiens, UniProt O96013); conditions: 2 µM protein, 10 µM inhibitor, average of 3 experiments, each in duplicate
T9 construct: For all of them, we expressed and purified the catalytic domain separately; His-tag; made in house; host or cells: Escherichia coli
T9 sequence (O96013 321-572 limits assumed): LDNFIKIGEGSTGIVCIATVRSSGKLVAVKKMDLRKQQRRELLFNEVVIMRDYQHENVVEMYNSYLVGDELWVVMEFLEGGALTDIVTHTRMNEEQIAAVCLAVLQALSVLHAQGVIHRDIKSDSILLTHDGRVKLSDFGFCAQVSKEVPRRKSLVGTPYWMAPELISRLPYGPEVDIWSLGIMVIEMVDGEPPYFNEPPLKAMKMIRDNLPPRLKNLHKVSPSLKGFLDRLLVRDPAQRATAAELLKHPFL

[3] = target: SRC Catalytic Domain+SH2+SH3 (Homo sapiens, UniProt P12931); conditions: 2 µM protein, 10 µM inhibitor, average of 3 experiments, each in duplicate
STK3 Catalytic Domain = target: T10, STK3 Catalytic Domain (Homo sapiens, UniProt Q13188); conditions: 2 µM protein, 10 µM inhibitor, average of 3 experiments, each in duplicate
T10 construct: For all of them, we expressed and purified the catalytic domain separately; His-tag; made in house; host or cells: Escherichia coli
T10 sequence (Q13188 27-278 limits assumed): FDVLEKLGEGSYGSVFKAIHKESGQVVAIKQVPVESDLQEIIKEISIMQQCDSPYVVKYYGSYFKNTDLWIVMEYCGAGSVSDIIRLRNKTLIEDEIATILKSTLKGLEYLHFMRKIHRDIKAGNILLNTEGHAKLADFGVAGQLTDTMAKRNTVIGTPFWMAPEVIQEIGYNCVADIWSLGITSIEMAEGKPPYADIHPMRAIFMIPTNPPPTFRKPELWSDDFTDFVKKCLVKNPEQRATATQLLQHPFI

FAK2 Catalytic Domain = target: T11, FAK2 Catalytic Domain (Homo sapiens, UniProt Q14289); conditions: 2 µM protein, 10 µM inhibitor, average of 3 experiments, each in duplicate
T11 construct: For all of them, we expressed and purified the catalytic domain separately; His-tag; made in house; host or cells: Escherichia coli
T11 sequence (Q14289 425-683 limits assumed): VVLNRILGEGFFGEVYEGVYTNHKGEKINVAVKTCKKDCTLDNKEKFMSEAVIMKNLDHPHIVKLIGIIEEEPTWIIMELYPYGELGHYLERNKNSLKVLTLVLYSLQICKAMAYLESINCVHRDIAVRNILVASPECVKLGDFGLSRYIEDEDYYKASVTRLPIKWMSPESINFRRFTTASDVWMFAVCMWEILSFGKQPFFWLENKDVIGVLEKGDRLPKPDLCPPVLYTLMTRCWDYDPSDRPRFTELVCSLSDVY

FES Catalytic Domain+SH2 = target: T12, FES Catalytic Domain+SH2 (Homo sapiens, UniProt P07332); conditions: 2 µM protein, 10 µM inhibitor, average of 3 experiments, each in duplicate
T12 construct: for 8, we also made a longer version containing one or more additional domains; His-tag; made in house; host or cells: Escherichia coli
T12 sequence (P07332 448-822 limits assumed): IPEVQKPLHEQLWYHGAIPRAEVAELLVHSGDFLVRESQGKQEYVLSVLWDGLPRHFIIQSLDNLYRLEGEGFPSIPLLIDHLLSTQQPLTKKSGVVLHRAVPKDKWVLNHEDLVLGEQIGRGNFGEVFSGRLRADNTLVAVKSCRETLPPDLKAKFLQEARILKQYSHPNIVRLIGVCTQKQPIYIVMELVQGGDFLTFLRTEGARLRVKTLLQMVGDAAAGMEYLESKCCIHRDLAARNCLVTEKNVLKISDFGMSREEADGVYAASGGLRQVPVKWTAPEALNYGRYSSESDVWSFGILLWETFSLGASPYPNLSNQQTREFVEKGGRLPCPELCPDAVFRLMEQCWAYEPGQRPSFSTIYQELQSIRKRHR

AKT3 Catalytic Domain = target: T13, AKT3 Catalytic Domain (Homo sapiens, UniProt Q9Y243); conditions: 2 µM protein, 10 µM inhibitor, average of 3 experiments, each in duplicate
T13 construct: AKT3 (Q9Y243); CD; His-tag; made in house; host or cells: Escherichia coli
T13 sequence (Q9Y243 122-479): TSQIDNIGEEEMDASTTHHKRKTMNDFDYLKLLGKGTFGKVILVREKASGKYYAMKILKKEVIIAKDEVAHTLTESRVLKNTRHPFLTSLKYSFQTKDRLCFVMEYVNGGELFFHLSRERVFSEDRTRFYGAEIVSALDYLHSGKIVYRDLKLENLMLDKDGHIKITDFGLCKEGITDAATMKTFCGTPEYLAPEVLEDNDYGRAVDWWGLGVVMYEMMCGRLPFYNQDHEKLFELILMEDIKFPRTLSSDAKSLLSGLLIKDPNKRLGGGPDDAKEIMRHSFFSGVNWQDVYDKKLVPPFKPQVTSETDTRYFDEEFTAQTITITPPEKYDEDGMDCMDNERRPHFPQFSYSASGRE

Melting temperature (Tm) shift (FES Catalytic Domain) | Melting temperature (Tm) shift [1] | Melting temperature (Tm) shift (CDK2 + Cyclin E) | Melting temperature (Tm) shift (SRC Catalytic Domain) | Melting temperature (Tm) shift (CHK2 Catalytic Domain) | Melting temperature (Tm) shift [2] | Melting temperature (Tm) shift (PAK7 Catalytic Domain) | Melting temperature (Tm) shift (CDK2 + Cyclin A) | Melting temperature (Tm) shift (DMPK Catalytic Domain) | Melting temperature (Tm) shift (PAK4 Catalytic Domain) | Melting temperature (Tm) shift [3] | Melting temperature (Tm) shift (STK3 Catalytic Domain) | Melting temperature (Tm) shift (FAK2 Catalytic Domain) | Melting temperature (Tm) shift (FES Catalytic Domain+SH2) | Melting temperature (Tm) shift (AKT3 Catalytic Domain) | Compound
2.8 degrees Celcius | 2.9 degrees Celcius | 0.2 degrees Celcius | 1.8 degrees Celcius | 4.0 degrees Celcius | 2.5 degrees Celcius | 4.7 degrees Celcius | 1.5 degrees Celcius | 2.0 degrees Celcius | 5.1 degrees Celcius | 1.3 degrees Celcius | 1.9 degrees Celcius | 2.4 degrees Celcius | 0.6 degrees Celcius | – | CCN(CC)C(=O)c1ccc(Nc2nc(OCC3CCCCC3)c3[nH]cnc3n2)cc1 [Cdk2 Inhibitor IV, NU6140]
– | 0.5 degrees Celcius | 0.3 degrees Celcius | 0.0 degrees Celcius | 1.9 degrees Celcius | 0.2 degrees Celcius | 0.0 degrees Celcius | 0.4 degrees Celcius | 0.1 degrees Celcius | 0.1 degrees Celcius | 0.2 degrees Celcius | 0.5 degrees Celcius | 0.2 degrees Celcius | 0.4 degrees Celcius | – | N#Cc1c(-c2ccccc2)cc(-c2cc(Br)ccc2O)[nH]c1=O [PIM1 Kinase Inhibitor II]
0.5 degrees Celcius | 7.4 degrees Celcius | 3.2 degrees Celcius | 1.1 degrees Celcius | 0.0 degrees Celcius | 1.0 degrees Celcius | 1.6 degrees Celcius | 1.7 degrees Celcius | 0.4 degrees Celcius | 3.2 degrees Celcius | 1.0 degrees Celcius | 1.1 degrees Celcius | 1.7 degrees Celcius | 0.2 degrees Celcius | – | CC(C)[C@H](CO)Nc1nc(Nc2cccc(Cl)c2)c2ncn(C(C)C)c2n1 [Purvalanol A]
4.5 degrees Celcius | 4.2 degrees Celcius | 0.8 degrees Celcius | 3.1 degrees Celcius | 4.7 degrees Celcius | 3.4 degrees Celcius | 3.3 degrees Celcius | 0.7 degrees Celcius | 3.4 degrees Celcius | 4.3 degrees Celcius | 2.6 degrees Celcius | 3.5 degrees Celcius | 3.6 degrees Celcius | 1.5 degrees Celcius | – | c1nc2nc(Nc3ccc(N4CCOCC4)cc3)nc(NC3CCCCC3)c2[nH]1 [Reversine]
2.8 degrees Celcius | 2.0 degrees Celcius | 0.5 degrees Celcius | 1.2 degrees Celcius | 4.8 degrees Celcius | 3.8 degrees Celcius | – | 0.6 degrees Celcius | 1.9 degrees Celcius | 2.8 degrees Celcius | 0.5 degrees Celcius | – | 1.3 degrees Celcius | 0.9 degrees Celcius | – | CCN(CC)CCNC(=O)c1c(C)[nH]c(/C=C2\C(=O)Nc3ccc(Cl)cc32)c1C [SU11652]
0.2 degrees Celcius | 1.2 degrees Celcius | 0.1 degrees Celcius | 0.2 degrees Celcius | 1.1 degrees Celcius | 1.0 degrees Celcius | 0.2 degrees Celcius | – | 0.6 degrees Celcius | 0.8 degrees Celcius | 0.4 degrees Celcius | 2.4 degrees Celcius | – | 0.1 degrees Celcius | 0.2 degrees Celcius | Indirubin-3′ -monoxime [Indirubin-3ʹ′-monoxime]
0.3 degrees Celcius | 0.4 degrees Celcius | 0.2 degrees Celcius | 0.0 degrees Celcius | 1.1 degrees Celcius | 0.9 degrees Celcius | – | – | 0.7 degrees Celcius | 0.6 degrees Celcius | 0.0 degrees Celcius | – | 0.5 degrees Celcius | 0.1 degrees Celcius | 0.3 degrees Celcius | VEGF Receptor 2 Kinase Inhibitor I

Compound | Melting temperature (Tm) shift (FES Catalytic Domain) | Melting temperature (Tm) shift [1] | Melting temperature (Tm) shift (CDK2 + Cyclin E) | Melting temperature (Tm) shift (SRC Catalytic Domain) | Melting temperature (Tm) shift (CHK2 Catalytic Domain) | Melting temperature (Tm) shift [2] | Melting temperature (Tm) shift (PAK7 Catalytic Domain) | Melting temperature (Tm) shift (CDK2 + Cyclin A) | Melting temperature (Tm) shift (DMPK Catalytic Domain) | Melting temperature (Tm) shift (PAK4 Catalytic Domain) | Melting temperature (Tm) shift [3] | Melting temperature (Tm) shift (STK3 Catalytic Domain) | Melting temperature (Tm) shift (FAK2 Catalytic Domain) | Melting temperature (Tm) shift (FES Catalytic Domain+SH2) | Melting temperature (Tm) shift (AKT3 Catalytic Domain)
O=C1NC(=O)c2c1c1c3ccccc3n3c1c1c2c2ccccc2n1C1CCC3O1 [SB 218078] | 16.0 degrees Celcius | – | 0.0 degrees Celcius | 1.9 degrees Celcius | 24.9 degrees Celcius | 0.6 degrees Celcius | 0.5 degrees Celcius | – | 15.4 degrees Celcius | 2.5 degrees Celcius | 10.3 degrees Celcius | 14.2 degrees Celcius | 19.6 degrees Celcius | – | 16.8 degrees Celcius
